Measurements reported in US9776990B2, “Isoindolone derivatives” (AbbVie Inc., priority 2012, dated 2017).

Assays:
BRD4 (BDI_K57-E168) = BRD4 (BDI_K57-E168) (Homo sapiens (Human), UniProt O60885); test: TR-FRET bromodomain binding assay, BRD4 first bromodomain; conditions: His-tagged BD1, 100 nM Alexa647 probe
Experimental: (§1) A time-resolved fluorescence resonance energy transfer (TR-FRET) assay was used to determine the affinities of compounds of the Examples listed in Table 1 for each bromodomain of BRD4. His-tagged first (BD1: amino acids K57-E168) and second (BD2: amino acids E352-E168) bromodomains of BRD4 were expressed and purified. An Alexa647-labeled BET-inhibitor was used as the fluorescent probe in the assay.
(§2) Compound dilution series were prepared in DMSO via a 3-fold serial dilution from 2.5 mM to 42 nM. Compounds were then diluted 6:100 in assay buffer (20 mM Sodium Phosphate, pH 6.0, 50 mM NaCl, 1 mM EDTA, 0.01% Triton X-100, 1 mM DTT) to yield 3× working solutions. Six microliters (μL) of the working solution was then transferred to white, low-volume assay plates (Costar #3673). A 1.5× assay mixture containing His-tagged bromodomain, Europium-conjugated anti-His antibody (Invitrogen PV5596) and the Alexa-647-conjugated probe molecule was also prepared. Twelve μL of this solution were added to the assay plate to reach a final volume of 18 μL. The final concentration of 1× assay buffer contains 2% DMSO, 50 μM−0.85 nM compound, 8 nM bromodomain, 1 nM antibody and 100 or 30 nM probe (for BDI or BDII, respectively). After a one-hour incubation at room temperature, TR-FRET ratios were determined using an Envision multilabel plate reader (Ex 340, Em 495/520).
(§3) TR-FRET data were normalized to the means of 24 no-compound controls (“high”) and 8 controls containing 1 μM un-labeled probe (“low”). Percent inhibition was plotted as a function of compound concentration and the data were fit with the 4 parameter logistic equation to obtain IC50s Inhibition constants (Ki) were calculated from the IC50s, probe Kd and probe concentration. Typical Z′ values were between 0.65 and 0.75. The minimum significant ratio was determined to evaluate assay reproducibility (Eastwood et al., (2006) J Biomol Screen, 11: 253-261). The MSR was determined to be 2.03 for BDI and 1.93 for BDII, and a moving MSR (last six run MSR overtime) for both BDI and BDII was typically <3.

BRD4 (BDII_E352-M457) = BRD4 (BDII_E352-M457) (Homo sapiens (Human), UniProt O60885); test: TR-FRET bromodomain binding assay, BRD4 second bromodomain; conditions: His-tagged BD2, 30 nM Alexa647 probe
Experimental: as §1, §2, §3

Compound | Ki (BRD4 (BDI_K57-E168)) [µM] | Ki (BRD4 (BDII_E352-M457)) [µM]
Cc1[nH]c(-c2cc(NC(=O)c3ccc[nH]3)ccc2Oc2ccc(F)cc2F)c2c1C(=O)CCC2 [Example 51, N-[4-(2,4-difluorophenoxy)-3-(3-methyl-4-oxo-4,5,6,7-tetrahydro-2H-isoindol-1-yl)phenyl]-1H-pyrrole-2-carboxamide] | 0.164 | 0.943
Cc1cc(C)cc(-c2[nH]c(C)c3c2CCCC3=O)c1 [Example 17, 1-(3,5-dimethylphenyl)-3-methyl-2,5,6,7-tetrahydro-4H-isoindol-4-one] | 5.51 | 17.5
Cc1[nH]c(-c2ccccc2Oc2ccccc2)c2c1C(=O)CCC2 [Example 2, 3-methyl-1-(2-phenoxyphenyl)-2,5,6,7-tetrahydro-4H-isoindol-4-one] | 0.255 | 0.504
Cc1[nH]c(-c2cc(NS(C)(=O)=O)ccc2Oc2ccccc2)c2c1C(=O)CC(c1ccccc1)C2 (centres unmarked) [Example 72, N-[3-(3-methyl-4-oxo-6-phenyl-4,5,6,7-tetrahydro-2H-isoindol-1-yl)-4-phenoxyphenyl]methanesulfonamide] | 7.28 | 22.2
Cc1[nH]c(-c2ccccc2OCc2cccc3cccnc23)c2c1C(=O)CCC2 [Example 35, 3-methyl-1-[2-(quinolin-8-ylmethoxy)phenyl]-2,5,6,7-tetrahydro-4H-isoindol-4-one] | 9.14 | 11
3-methyl-6-(2-methylpropyl)-1-(2-phenoxyphenyl)-2,5,6,7-tetrahydro-4H-isoindol-4-one [Example 68] | 3.62 | 22.2
Cc1[nH]c(-c2cc(C(=O)O)ccc2Oc2ccccc2)c2c1C(=O)CCC2 [Example 54, 3-(3-methyl-4-oxo-4,5,6,7-tetrahydro-2H-isoindol-1-yl)-4-phenoxybenzoic Acid] | 0.045 | 0.289
Cc1[nH]c(-c2ccc(Cl)cc2)c2c1C(=O)CCC2 [Example 13, 1-(4-chlorophenyl)-3-methyl-2,5,6,7-tetrahydro-4H-isoindol-4-one] | 7.29 | 22.2
Cc1[nH]c(-c2cc(S(C)(=O)=O)ccc2OCC2CC2)c2c1C(=O)CCC2 [Example 73, 1-[2-(cyclopropylmethoxy)-5-(methylsulfonyl)phenyl]-3-methyl-2,5,6,7-tetrahydro-4H-isoindol-4-one] | 0.034 | 0.461
COc1cccc(-c2[nH]c(C)c3c2CCCC3=O)c1 [Example 20, 1-(3-methoxyphenyl)-3-methyl-2,5,6,7-tetrahydro-4H-isoindol-4-one] | 1.77 | 4.49
Cc1ccc(-c2[nH]c(C)c3c2CCCC3=O)cc1 [Example 4, 3-methyl-1-(4-methylphenyl)-2,5,6,7-tetrahydro-4H-isoindol-4-one] | 2.49 | 15.9
Cc1[nH]c(-c2cc(NS(C)(=O)=O)ccc2Oc2ccc(F)cc2F)c2c1C(=O)CCC2 [Example 46, N-[4-(2,4-difluorophenoxy)-3-(3-methyl-4-oxo-4,5,6,7-tetrahydro-2H-isoindol-1-yl)phenyl]methanesulfonamide] | 0.014 | 0.052
Cc1[nH]c(-c2ccccc2OCC2CCCC2)c2c1C(=O)CCC2 [Example 30, 1-[2-(cyclopentylmethoxy)phenyl]-3-methyl-2,5,6,7-tetrahydro-4H-isoindol-4-one] | 1.25 | 4.78
Cc1[nH]c(-c2cc(N)ccc2Oc2ccccc2)c2c1C(=O)CC(C)C2 (centres unmarked) [Example 66, 1-(5-amino-2-phenoxyphenyl)-3,6-dimethyl-2,5,6,7-tetrahydro-4H-isoindol-4-one] | 0.058 | 0.069
COc1ccc(-c2[nH]c(C)c3c2CCCC3=O)cc1 [Example 11, 1-(4-methoxyphenyl)-3-methyl-2,5,6,7-tetrahydro-4H-isoindol-4-one] | 1.88 | 5.46
Cc1[nH]c(-c2ccccc2O)c2c1C(=O)CCC2 [Example 28, 1-(2-hydroxyphenyl)-3-methyl-2,5,6,7-tetrahydro-4H-isoindol-4-one] | 5.31 | 15.1
